Where two headings read alike, the source gives them in different places.
Assays:
[1] = tested on: NUGC-3_P53_Luc single clonal cell line (p53 Y220C); experiment: Reporter gene assay (p53 RE luciferase); format: cell-based; conditions: Homo sapiens, luciferase reporter, 6 hours, normalized to Ref-1a (10 μM) high control, read-out: p53(Y220C)_NUGC-3 EC50
Description: NUGC-3_P53_Luc single clonal cell line was established using pGL4.38[luc2P/p53 RE/Hygro] Vector (E365A, promega). NUGC-3_P53-Luc single clonal cells were cultured in 37° C. cell incubator before use. NUGC-3-P53-Luc cells were collected and washed twice with PBS to remove phenol red and then resuspended in medium to a proper concentration. Tested compound dilutions were transferred into 384 well assay plates (PerkinElmer). A desired number of cells was seeded into the assay plate and cultured for 6 hours at 37° C. cell incubator. Britelite plus Luciferase Assay Reagent were added into each well and the luminescence value was recorded on Envision. The percent of activity value of compounds treated wells was normalized between high control and low control. Wells containing cells and Ref-1a (10 μM) sewved as high control, and wells containing cells and same percentage of DMSO sewved as low control. Activity value (%)=(Luminescence readoutCompound treated−Luminescence readoutLow control)/(Luminescence readoutHigh control−Luminescence readoutLow control)*100%. Then the data were analyzed either by fitting a 4-parameter logistic model or by Excel to calculate EC50 values and the EC50 was the concentration at 50% Activity on the curve.

NUGC4 (P53 WT) = experiment: Cell viability assay (CellTiter-Glo, 6 days), NUGC4; format: cell-based; conditions: cell viability, 6 days, CellTiter-Glo, read-out: NUGC4 (P53 WT) IC50
Description: (§1) Cells were collected and counted. A desired number of cells was seeded into 96-well microplate and cultured in 37° C. cell incubator overnight. Compounds dissolved in cell culture medium were added into cell plate and cultured for 6 days. After balancing CellTiter-Glo reagent and cells at room temperature for 30 min, equal volume of CellTiter-Glo reagents was added to assay plate and shaken for 2 min for cell lysis. The cells were balanced at room temperature for 10 minutes and Luminescence signal was read using Envision. The percent of cell viability for compounds treated wells were normalized between High control and low control. Wells containing cell culture medium and same percentage DMSO sewved as Low control. Wells containing cells and same percentage DMSO sewved as High control. Cell viability (%)=(Luminescence readoutCompound treated−Luminescence readoutLow control)/(Luminescence readoutHigh control−Luminescence readoutLow control)*100%. Then the data were analyzed either by fitting a 4-parameter logistic model or by Excel to calculate IC50 values. And the IC50 was the concentration at 50% Cell viability on the curve.

[2] = target: T1, His-p53 Y220C (94-294) protein (Homo sapiens, UniProt P04637, Y220C); experiment: In vitro DNA binding assay (HTRF); format: biochemical; conditions: % activation normalized to 2 μM Ref-1a high control
T1 construct: His-p53 Y220C (94-294) protein

NUGC3 (P53 Y220C) = experiment: Cell viability assay (CellTiter-Glo, 6 days), NUGC3; format: cell-based; conditions: cell viability, 6 days, CellTiter-Glo, read-out: NUGC3 (P53 Y220C) IC50
Description: as §1

## COc1cc(P(C)(C)=O)ncc1NCC#Cc1sc2c(N[C@@H]3CCN(C)C[C@@H]3F)cccc2c1CC(F)(F)F [Example 92, (5-((3-(7-(((3S,4R)-3-fluoro-1-methylpiperidin-4-yl)amino)-3-(2,2,2-trifluoroethyl)benzo[b]thiophen-2-yl)prop-2-yn-1-yl)amino)-4-methoxypyridin-2-yl)dimethylphosphine oxide]
[1]; NUGC-3
  EC50: 180 nM
NUGC4 (P53 WT); Homo sapiens, NUGC-4, 144 h
  IC50: 13400 nM
[2]
  EC50: 47 nM
NUGC3 (P53 Y220C); Homo sapiens, NUGC-3, 144 h
  IC50: 990 nM

## CN1CC[C@@H](Nc2cccc3c(CC(F)(F)F)c(C#CCOc4ccc(P(C)(C)=O)cc4C(N)=O)sc23)[C@@H](F)C1 [Example 165, 5-(dimethylphosphoryl)-2-((3-(7-(((3S,4R)-3-fluoro-1-methylpiperidin-4-yl)amino)-3-(2,2,2-trifluoroethyl)benzo[b]thiophen-2-yl)prop-2-yn-1-yl)oxy)benzamide]
[1]; NUGC-3
  EC50: 4220 nM
NUGC4 (P53 WT); Homo sapiens, NUGC-4, 144 h
  IC50: > 50000 nM
[2]
  EC50: 48 nM
NUGC3 (P53 Y220C); Homo sapiens, NUGC-3, 144 h
  IC50: 20500 nM

## COc1cc(P(C)(C)=O)ccc1NCC#Cc1sc2c(N[C@@H]3CCN(C)C[C@@H]3F)cccc2c1CC(F)(F)F [Example 115, (4-((3-(7-(((3S,4R)-3-fluoro-1-methylpiperidin-4-yl)amino)-3-(2,2,2-trifluoroethyl)benzo[b]thiophen-2-yl)prop-2-yn-1-yl)amino)-3-methoxyphenyl)dimethylphosphine oxide]
[1]; NUGC-3, 6 h
  EC50: 30 nM
NUGC4 (P53 WT); Homo sapiens, NUGC-4, 144 h
  IC50: 8580 nM
[2]
  EC50: 23 nM
NUGC3 (P53 Y220C); Homo sapiens, NUGC-3, 144 h
  IC50: 240 nM

## CN1CC[C@@H](Nc2cccc3c(CC(F)(F)F)c(C#CCNc4ccc(P(C)(C)=O)c5ncsc45)sc23)[C@@H](F)C1 [Example 220, (7-((3-(7-(((3S,4R)-3-fluoro-1-methylpiperidin-4-yl)amino)-3-(2,2,2-trifluoroethyl)benzo[b]thiophen-2-yl)prop-2-yn-1-yl)amino)benzo[d]thiazol-4-yl)dimethylphosphine oxide]
[1]; NUGC-3
  EC50: 150 nM
NUGC4 (P53 WT); Homo sapiens, NUGC-4, 144 h
  IC50: 8110 nM
[2]
  EC50: 41 nM
NUGC3 (P53 Y220C); Homo sapiens, NUGC-3, 144 h
  IC50: 250 nM

## CCP(=O)(CC)c1ccc(NCC#Cc2sc3c(N[C@@H]4CCN(C)C[C@@H]4F)cccc3c2CC(F)(F)F)c(OCF)c1 (racemic) [Example 66, diethyl(4-((3-(7-(((Z)-3-fluoro-1-methylpiperidin-4-yl)amino)-3-(2,2,2-trifluoroethyl)benzo[b]thiophen-2-yl)prop-2-yn-1-yl)amino)-3-(fluoromethoxy)phenyl)phosphine oxide]
[1]; NUGC-3
  EC50: 120 nM
NUGC4 (P53 WT); Homo sapiens, NUGC-4, 144 h
  IC50: 10300 nM
[2]
  EC50: 60 nM
NUGC3 (P53 Y220C); Homo sapiens, NUGC-3, 144 h
  IC50: 820 nM

## CN1CCC(Nc2cccc3c(CC(F)(F)F)c(C#CCNc4ccc(P(C)(C)=O)cc4OC4CC4)sc23)[C@@H](F)C1 (stereo in doubt) [Example 106, (3-cyclopropoxy-4-((3-(7-(((Z)-3-fluoro-1-methylpiperidin-4-yl)amino)-3-(2,2,2-trifluoroethyl)benzo[b]thiophen-2-yl)prop-2-yn-1-yl)amino)phenyl)dimethylphosphine oxide]
[1]; NUGC-3, 6 h
  EC50: 90 nM
NUGC4 (P53 WT); Homo sapiens, NUGC-4, 144 h
  IC50: 3800 nM
NUGC3 (P53 Y220C); Homo sapiens, NUGC-3, 144 h
  IC50: 780 nM

## CN1CC[C@@H](Nc2cccc3c(CC(F)(F)F)c(C#CCNc4ccc(P(C)(C)=O)cc4C(=O)NC4COC4)sc23)[C@@H](F)C1 [Example 217, 5-(dimethylphosphoryl)-2-((3-(7-(((3S,4R)-3-fluoro-1-methylpiperidin-4-yl)amino)-3-(2,2,2-trifluoroethyl)benzo[b]thiophen-2-yl)prop-2-yn-1-yl)amino)-N-(oxetan-3-yl)benzamide]
[1]; NUGC-3
  EC50: 150 nM
NUGC4 (P53 WT); Homo sapiens, NUGC-4, 144 h
  IC50: 15400 nM
NUGC3 (P53 Y220C); Homo sapiens, NUGC-3, 144 h
  IC50: 320 nM

## COc1cc(P(C)(C)=O)ccc1NCC#Cc1sc2c(NC3CCN(C)CC3C(F)(F)F)cccc2c1CC(F)(F)F (racemic) [Example 170, (3-methoxy-4-((3-(7-(((E)-1-methyl-3-(trifluoromethyl)piperidin-4-yl)amino)-3-(2,2,2-trifluoroethyl)benzo[b]thiophen-2-yl)prop-2-yn-1-yl)amino)phenyl)di methylphosphine oxide (racemic)]
NUGC4 (P53 WT)
  IC50: 3720 nM
[2]
  EC50: 76 nM
NUGC3 (P53 Y220C)
  IC50: 1640 nM

## CN1CC[C@@H](Nc2cccc3c(CC(F)(F)F)c(C#CCNc4ccc(P(C)(C)=O)cc4-c4cc[nH]n4)sc23)[C@@H](F)C1 [Example 200, (4-((3-(7-(((3S,4R)-3-fluoro-1-methylpiperidin-4-yl)amino)-3-(2,2,2-trifluoroethyl)benzo[b]thiophen-2-yl)prop-2-yn-1-yl)amino)-3-(1H-pyrazol-3-yl)phenyl)dimethylphosphine oxide]
[1]; NUGC-3, 6 h
  EC50: 60 nM
NUGC4 (P53 WT); Homo sapiens, NUGC-4, 144 h
  IC50: 13100 nM
[2]
  EC50: 25 nM

## COc1cc(P(C)(C)=O)ccc1NCC#Cc1sc2c(NC3CCN(C)CC3C(F)(F)F)cccc2c1CC(F)(F)F (racemic) [Example 169, (3-methoxy-4-((3-(7-(((Z)-1-methyl-3-(trifluoromethyl)piperidin-4-yl)amino)-3-(2,2,2-trifluoroethyl)benzo[b]thiophen-2-yl)prop-2-yn-1-yl)amino)phenyl)dimethylphosphine oxide]
NUGC4 (P53 WT); Homo sapiens, NUGC-4, 144 h
  IC50: 4330 nM
[2]
  EC50: 70 nM
NUGC3 (P53 Y220C); Homo sapiens, NUGC-3, 144 h
  IC50: 1630 nM

## COc1cc(S(C)(=O)=O)ccc1NCC#Cc1sc2c(N[C@H]3CC[C@H](N4CC5(COC5)C4)CC3)cccc2c1CC(F)(F)F [Example 17, trans-N-(4-(2-oxa-6-azaspiro[3.3]heptan-6-yl)cyclohexyl)-2-(3-((2-methoxy-4-(methylsulfonyl)phenyl)amino)prop-1-yn-1-yl)-3-(2,2,2-trifluoroethyl)benzo[b]thiophen-7-amine]
[2]
  EC50: 72 nM

## COc1cc(S(C)(=O)=O)ccc1NCC#Cc1sc2c(NC3C4CNCC3CNC4)cccc2c1CC(F)(F)F (stereo not shown) [Example 78, N-(2-(3-((2-methoxy-4-(methylsulfonyl)phenyl)amino)prop-1-yn-1-yl)-3-(2,2,2-trifluoroethyl)benzo[b]thiophen-7-yl)-3,7-diazabicyclo[3.3.1]nonan-9-amine]
[2]
  EC50: 134 nM

## COc1cc(S(C)(=O)=O)ccc1NCC#Cc1sc2c(NC3CC4CC3CN4C)cccc2c1CC(F)(F)F (stereo not shown) [Example 27, N-(2-(3-((2-methoxy-4-(methylsulfonyl)phenyl)amino)prop-1-yn-1-yl)-3-(2,2,2-trifluoroethyl)benzo[b]thiophen-7-yl)-2-methyl-2-azabicyclo[2.2.1]heptan-5-amine]
[2]
  EC50: 235 nM

## COc1cc(P(C)(C)=O)ccc1NCC#Cc1sc2c(N[C@H]3CCN(C)C[C@H]3Cl)cccc2c1CC(F)(F)F [Example 144, (3R,4S)-3-chloro-N-[2-[3-(4-dimethylphosphoryl-2-methoxy-anilino)prop-1-ynyl]-3-(2,2,2-trifluoroethyl)benzothiophen-7-yl]-1-methyl-piperidin-4-amine]
[2]
  EC50: 102 nM

## C[C@@H](C#Cc1sc2c(NC3CCN(C)CC3)cccc2c1CC(F)(F)F)Nc1ccc(S(N)(=O)=O)cc1 [Example 45, (S)-4-((4-(7-((1-methylpiperidin-4-yl)amino)-3-(2,2,2-trifluoroethyl)benzo[b]thiophen-2-yl)but-3-yn-2-yl)amino)benzenesulfonamide]
[2]
  EC50: 2790 nM

## CN1CCC(Nc2cccc3c(CC(F)(F)F)c(C#CCNc4cccc5cc[nH]c45)sc23)CC1 [Example 29, N-(3-(7-((1-methylpiperidin-4-yl)amino)-3-(2,2,2-trifluoroethyl)benzo[b]thiophen-2-yl)prop-2-yn-1-yl)-1H-indol-7-amine]
[2]
  EC50: 6400 nM

## CNC(=O)c1ccc(NCC#Cc2sc3c(NC4CCN(C)CC4)cccc3c2CC(F)(F)F)c(OC)c1 [Example 8, 3-methoxy-N-methyl-4-((3-(7-((1-methylpiperidin-4-yl)amino)-3-(2,2,2-trifluoroethyl)benzo[b]thiophen-2-yl)prop-2-yn-1-yl)amino)benzamide]
[2]
  EC50: 112 nM

## COCCN1CC[C@@H](Nc2cccc3c(CC(F)(F)F)c(C#CCNc4ccc(P(C)(C)=O)cc4OC)sc23)[C@@H](F)C1 (racemic) [Example 88, (4-((3-(7-(((Z)-3-fluoro-1-(2-methoxyethyl)piperidin-4-yl)amino)-3-(2,2,2-trifluoroethyl)benzo[b]thiophen-2-yl)prop-2-yn-1-yl)amino)-3-methoxyphenyl)dimethylphosphine oxide]
[2]
  EC50: 404 nM
